Measurements published in ChEMBL document CHEMBL5376002, “A Hybrid Antimicrobial Peptide Targeting Staphylococcus aureus with a Dual Function of Inhibiting Quorum Sensing Signaling and an Antibacterial Effect” (J Med Chem, 2023).
Values after ≈ are worked out from the molar mass of the structure shown. Active and inactive are the calls of the source. No cut-off for these calls is given here. Numbered stars: 1 amine (or outer) side, 2 acyl side, 3 side chain; on linkers, the order of the positions; unused ones are H or OH. Bridge positions count the residues as written; N and C are the ends. Square brackets hold non-standard residues; d marks the D form. Peptide text beside a SMILES is read from it. I, II: the chains in the order shown. X1 = O=C1CC([*:2])C(=O)N1CCCCCC(=O)[*:1]; Dab = NCC[C@H](N)C(=O)O

Legend:
Staphylococcus aureus [1] = assay: Bactericidal activity against Staphylococcus aureus ATCC 43300 assessed as inhibition of bacterial growth incubated for 18 to 24 hrs; format: functional; settings: time 18-24 hrs
RAW264.7 [2] = assay: Cytotoxicity against mouse RAW264.7 cells assessed as cell viability incubated for 48 hrs by MTT assay; format: functional
Streptococcus mutans [3] = assay: Antibacterial activity against Streptococcus mutans UA159 assessed as inhibition of bacterial growth incubated for 18 to 24 hrs; format: functional; settings: time 18-24 hrs
Staphylococcus aureus [4] = assay: Antibacterial activity against Staphylococcus aureus ATCC 12600 assessed as inhibition of bacterial growth incubated for 18 to 24 hrs; format: functional; settings: time 18-24 hrs
[5] = test system: Staphylococcus epidermidis; assay: Bactericidal activity against Staphylococcus epidermidis ATCC 12228 assessed as inhibition of bacterial growth incubated for 18 to 24 hrs; format: functional; settings: time 18-24 hrs
Staphylococcus aureus [6] = assay: Bactericidal activity against Staphylococcus aureus ATCC 12600 assessed as inhibition of bacterial growth incubated for 18 to 24 hrs; format: functional; settings: time 18-24 hrs
Staphylococcus aureus [7] = assay: Bactericidal activity against Staphylococcus aureus ATCC 6538p assessed as inhibition of bacterial growth incubated for 18 to 24 hrs; format: functional; settings: time 18-24 hrs
Staphylococcus aureus [8] = assay: Antibacterial activity against Staphylococcus aureus ATCC 6538p assessed as inhibition of bacterial growth incubated for 18 to 24 hrs; format: functional; settings: time 18-24 hrs
[9] = test system: Staphylococcus epidermidis; assay: Antibacterial activity against Staphylococcus epidermidis ATCC 12228 assessed as inhibition of bacterial growth incubated for 18 to 24 hrs; format: functional; settings: time 18-24 hrs
Streptococcus pneumoniae [10] = assay: Bactericidal activity against Streptococcus pneumoniae ATCC 49619 assessed as inhibition of bacterial growth incubated for 18 to 24 hrs; format: functional; settings: time 18-24 hrs
[11] = test system: Staphylococcus saprophyticus; assay: Antibacterial activity against Staphylococcus saprophyticus ATCC BAA-750 assessed as inhibition of bacterial growth incubated for 18 to 24 hrs; format: functional; settings: time 18-24 hrs
Escherichia coli [12] = assay: Antibacterial activity against Escherichia coli ATCC 25922 assessed as inhibition of bacterial growth incubated for 18 to 24 hrs; format: functional; settings: time 18-24 hrs
Streptococcus mutans [13] = assay: Antibacterial activity against Streptococcus mutans ATCC 25175 assessed as inhibition of bacterial growth incubated for 18 to 24 hrs; format: functional; settings: time 18-24 hrs
Escherichia coli [14] = assay: Bactericidal activity against Escherichia coli ATCC 25922 assessed as inhibition of bacterial growth incubated for 18 to 24 hrs; format: functional; settings: time 18-24 hrs
[15] = test system: Staphylococcus saprophyticus; assay: Bactericidal activity against Staphylococcus saprophyticus ATCC BAA-750 assessed as inhibition of bacterial growth incubated for 18 to 24 hrs; format: functional; settings: time 18-24 hrs
Streptococcus mutans [16] = assay: Bactericidal activity against Streptococcus mutans UA159 assessed as inhibition of bacterial growth incubated for 18 to 24 hrs; format: functional; settings: time 18-24 hrs
Staphylococcus aureus [17] = assay: Antibacterial activity against Staphylococcus aureus ATCC 43300 assessed as inhibition of bacterial growth incubated for 18 to 24 hrs; format: functional; settings: time 18-24 hrs
Streptococcus pneumoniae [18] = assay: Antibacterial activity against Streptococcus pneumoniae ATCC 49619 assessed as inhibition of bacterial growth incubated for 18 to 24 hrs; format: functional; settings: time 18-24 hrs
Streptococcus mutans [19] = assay: Bactericidal activity against Streptococcus mutans ATCC 25175 assessed as inhibition of bacterial growth incubated for 18 to 24 hrs; format: functional; settings: time 18-24 hrs
RAW264.7 [20] = assay: Cytotoxicity against mouse RAW264.7 cells assessed as cell viability upto 125 uM incubated for 48 hrs by MTT assay; format: functional, cell-based

Compound	MBC (Staphylococcus aureus [1]) [µM]	CC50 (RAW264.7 [2]) [µM]	MIC (Streptococcus mutans [3]) [µM]	MIC (Staphylococcus aureus [4]) [µM]	MBC [5] [µM]	MBC (Staphylococcus aureus [6]) [µM]	MBC (Staphylococcus aureus [7]) [µM]	MIC (Staphylococcus aureus [8]) [µM]	MIC [9] [µM]	MBC (Streptococcus pneumoniae [10]) [µM]	MIC [11] [µM]	MIC (Escherichia coli [12]) [µM]	MIC (Streptococcus mutans [13]) [µM]	MBC (Escherichia coli [14]) [µM]	MBC [15] [µM]	MBC (Streptococcus mutans [16]) [µM]	MIC (Staphylococcus aureus [17]) [µM]	MIC (Streptococcus pneumoniae [18]) [µM]	MBC (Streptococcus mutans [19]) [µM]	Activity (RAW264.7 [20])
CC[C@H](C)[C@H](NC(=O)CNC(=O)CCCCCN1C(=O)CC(SC[C@H](N)C(=O)NCC(=O)NCC(=O)N[C@H](C(=O)N[C@@H](CC(N)=O)C(=O)N[C@H]2CCNC(=O)[C@H](CC(C)C)NC(=O)[C@H](CC(C)C)NC(=O)[C@H](Cc3ccccc3)NC(=O)[C@H](C)NC2=O)[C@@H](C)CC)C1=O)C(=O)N[C@@H](CCCCN)C(=O)N[C@@H](CC(N)=O)C(=O)N[C@@H](C)C(=O)N[C@@H](Cc1c[nH]c2ccccc12)C(=O)N[C@@H](CCCCN)C(=O)N[C@@H](C)C(=O)N[C@@H](CCSC)C(=O)N[C@H](C(=O)N[C@@H](CCCCN)C(=O)N[C@@H](C)C(=O)N[C@@H](Cc1c[nH]c2ccccc12)C(=O)N[C@@H](Cc1ccc(O)cc1)C(=O)O)[C@@H](C)CC (stereo not given in full) (I: GIKNAWKAMIKAWY-OH / II: H-CGGIN[Dab]AFLL; linker I:N-II:1 via X1; lactam II:6-II:C)	12.5 (≈ 35.8 µg/mL)	105	6.25 (≈ 17.9 µg/mL)	6.25 (≈ 17.9 µg/mL)	6.13 (≈ 17.5 µg/mL)	6.25 (≈ 17.9 µg/mL)	6.25 (≈ 17.9 µg/mL)	6.25 (≈ 17.9 µg/mL)	3.13 (≈ 8.96 µg/mL)	12.5 (≈ 35.8 µg/mL)	6.25 (≈ 17.9 µg/mL)	6.25 (≈ 17.9 µg/mL)	3.13 (≈ 8.96 µg/mL)	6.25 (≈ 17.9 µg/mL)	12.5 (≈ 35.8 µg/mL)	12.5 (≈ 35.8 µg/mL)	6.25 (≈ 17.9 µg/mL)	12.5 (≈ 35.8 µg/mL)	3.13 (≈ 8.96 µg/mL)	–
CC1(C)S[C@@H]2[C@H](NC(=O)[C@H](N)c3ccccc3)C(=O)N2[C@H]1C(=O)O [AMPICILLIN]	–	–	12.5 (≈ 4.37 µg/mL)	0.1 (≈ 0.0349 µg/mL)	0.39 (≈ 0.136 µg/mL)	0.19 (≈ 0.0664 µg/mL)	0.19 (≈ 0.0664 µg/mL)	0.1 (≈ 0.0349 µg/mL)	0.39 (≈ 0.136 µg/mL)	0.78 (≈ 0.273 µg/mL)	1.56 (≈ 0.545 µg/mL)	> 100	6.25 (≈ 2.18 µg/mL)	–	1.56 (≈ 0.545 µg/mL)	12.5 (≈ 4.37 µg/mL)	> 100	0.78 (≈ 0.273 µg/mL)	6.25 (≈ 2.18 µg/mL)	–
H-IKNAWKAMIKAWY-OH	12.5	> 125	6.25	6.25	3.13	6.25	6.25	6.25	3.13	12.5	6.25	6.25	6.25	6.25	12.5	25	6.25	12.5	12.5	inactive
